Biological target: T1, hFXR (Homo sapiens, UniProt Q96RI1)
T1 construct: expressed in transfected cells; host or cells: CV-1 cells
T1 sequence (Q96RI1 1-486): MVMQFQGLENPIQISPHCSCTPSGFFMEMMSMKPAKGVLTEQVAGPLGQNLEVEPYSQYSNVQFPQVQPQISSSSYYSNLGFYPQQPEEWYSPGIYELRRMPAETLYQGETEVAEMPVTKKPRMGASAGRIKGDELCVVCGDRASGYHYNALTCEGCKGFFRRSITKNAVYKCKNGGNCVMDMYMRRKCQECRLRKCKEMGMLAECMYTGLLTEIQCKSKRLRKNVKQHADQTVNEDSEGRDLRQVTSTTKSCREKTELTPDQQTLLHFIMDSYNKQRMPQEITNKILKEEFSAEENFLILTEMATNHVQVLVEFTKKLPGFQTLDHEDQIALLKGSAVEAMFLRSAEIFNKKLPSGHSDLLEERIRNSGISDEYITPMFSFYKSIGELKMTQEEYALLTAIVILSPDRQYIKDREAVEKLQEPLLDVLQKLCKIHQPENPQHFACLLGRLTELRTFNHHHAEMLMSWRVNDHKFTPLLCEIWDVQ
T1 sequence (P19793 1-462 partner): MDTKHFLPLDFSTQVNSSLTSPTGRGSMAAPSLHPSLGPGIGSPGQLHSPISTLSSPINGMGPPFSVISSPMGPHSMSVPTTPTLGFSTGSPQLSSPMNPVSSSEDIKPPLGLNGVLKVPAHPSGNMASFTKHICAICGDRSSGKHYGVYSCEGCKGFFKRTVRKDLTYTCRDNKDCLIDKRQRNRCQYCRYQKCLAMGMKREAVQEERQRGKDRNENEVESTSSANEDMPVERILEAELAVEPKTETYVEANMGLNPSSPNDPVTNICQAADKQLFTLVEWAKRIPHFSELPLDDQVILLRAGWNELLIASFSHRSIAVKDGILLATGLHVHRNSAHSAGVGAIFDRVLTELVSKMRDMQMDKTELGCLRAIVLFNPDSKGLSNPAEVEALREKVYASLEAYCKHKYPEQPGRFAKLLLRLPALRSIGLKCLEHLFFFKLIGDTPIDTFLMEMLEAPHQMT
Assay: In Vitro FXR Assay (TK): TK-ECRE-luc reporter in transfected CV-1 cells
Format: cell-based
Conditions: 18 hrs, luminescence, maximum efficacy of <25% of the Fexarmine control classified as '+'
Procedure, shortened: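 Luciferase read-out after 18 h compound exposure of CV-1 cells carrying transfected hFXR plus hRXR expression plasmids, TK-ECRE-luc reporter and pCMX-YFP. Cells cultured in charcoal-stripped FBS before transfection; compounds serially diluted in DMSO.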

| Structure (SMILES) | EC50 [nM] |
| --- | --- |
| COc1ncc(-c2cccc(N(C[C@H]3CC[C@H](c4ccc(OC)c(C)c4)CC3)C(=O)[C@H]3CC[C@H](CNS(C)(=O)=O)CC3)c2)s1 [Compound 25.08, trans-N-((trans-4-(4-Methoxy-3-methylphenyl)cyclohexyl)methyl)-N-(3-(2-methoxythiazol-5-yl)phenyl)-4-(methylsulfonamidomethyl) cyclohexanecarboxamide] | ≤ 250 |
| COc1ncc(-c2cccc(N(C[C@H]3CC[C@H](c4ccc(OC)c(C)c4)CC3)C(=O)[C@H]3CC[C@H](CNC(C)=O)CC3)c2)s1 [Compound 25.06, trans-4-(Acetamidomethyl)-N-((trans-4-(4-methoxy-3-methylphenyl)cyclohexyl)methyl)-N-(3-(2-methoxythiazol-5-yl)phenyl)cyclohexanecarboxamide] | ≤ 250 |
| COc1ccc([C@H]2CC[C@H](CN(c3cc(-c4cnn(C(C)C)c4)ccn3)C(=O)[C@H]3CC[C@H](OC(=O)N4CCC4)CC3)CC2)cc1C#N [Compound 7.46, trans-4-(((trans-4-(3-Cyano-4-methoxyphenyl)cyclohexyl)methyl)(4-(1-isopropyl-1H-pyrazol-4-yl)pyridin-2-yl)carbamoyl)cyclohexyl azetidine-1-carboxylate] | ≤ 250 |
| COc1ccc([C@H]2CC[C@H](CN(c3cccc(-c4cnn(C5CC5)c4)c3)C(=O)[C@H]3CC[C@H](NC(=O)CNS(C)(=O)=O)CC3)CC2)cc1C [Compound 31.03, trans-N-(3-(1-Cyclopropyl-1H-pyrazol-4-yl)phenyl)-N-((trans-4-(4-methoxy-3-methylphenyl)cyclohexyl)methyl)-4-(2-(methylsulfonamido)acetamido) cyclohexane carboxamide] | ≥ 1000 |
| COc1ccc([C@H]2CC[C@H](CN(c3cc(-c4cnc(C(C)C)s4)ccn3)C(=O)[C@H]3CC[C@H](OC(=O)NCCO)CC3)CC2)cc1C [Compound 6.03, trans-4-((4-(2-Isopropylthiazol-5-yl)pyridin-2-yl)((trans-4-(4-methoxy-3-methylphenyl)cyclohexyl)methyl)carbamoyl)cyclohexyl (2-hydroxyethyl) carbamate] | ≤ 250 |
| COC(=O)CC1CN(C(=O)O[C@H]2CC[C@H](C(=O)N(C[C@H]3CC[C@H](c4ccc(OC)c(C)c4)CC3)c3cccc(-c4cnn(C5CC5)c4)c3)CC2)C1 [Compound 7.41, trans-4-((3-(1-Cyclopropyl-1H-pyrazol-4-yl)phenyl)((trans-4-(4-methoxy-3-methylphenyl)cyclohexyl)methyl)carbamoyl)cyclohexyl 3-(2-methoxy-2-oxoethyl)azetidine-1-carboxylate] | ≤ 250 |
| CNC1CN(C(=O)O[C@H]2CC[C@H](C(=O)N(C[C@H]3CC[C@H](c4ccc(OC)c(C)c4)CC3)c3cccc(-c4cnn(C5CC5)c4)c3)CC2)C1 [Compound 7.37] | ≤ 250 |
| COc1ccc([C@H]2CC[C@H](CN(c3cc(-c4cnn(C(C)C)c4)ccn3)C(=O)[C@H]3CC[C@H](NC(C)=O)CC3)CC2)cc1C [Compound 26.33, trans-4-Acetamido-N-(4-(1-isopropyl-1H-pyrazol-4-yl)pyridin-2-yl)-N-((trans-4-(4-methoxy-3-methylphenyl)cyclohexyl)methyl)cyclohexanecarboxamide] | ≤ 250 |
| COc1ccc([C@H]2CC[C@H](CN(c3cc(-c4cnn(C(C)C)c4)ccn3)C(=O)[C@H]3CC[C@H](OC(=O)NCC(C)(C)O)CC3)CC2)nc1C [Compound 6.92, trans-4-((4-(1-Isopropyl-1H-pyrazol-4-yl)pyridin-2-yl)((trans-4-(5-methoxy-6-methylpyridin-2-yl)cyclohexyl)methyl)carbamoyl)cyclohexyl (2-hydroxy-2-methylpropyl)carbamate] | ≤ 250 |

More lines, now with the values ahead:

| EC50 [nM] | Structure (SMILES) |
| --- | --- |
| ≥ 1000 | COc1ccc([C@H]2CC[C@H](CN(c3cc(-c4coc(C5CC5)n4)ccn3)C(=O)[C@H]3CC[C@H](CNC(=O)C4CC(N(C)C)C4)CC3)CC2)nc1C (stereo partly drawn) [Compound 30.05, trans-N-(4-(2-Cyclopropyloxazol-4-yl)pyridin-2-yl)-4-((3-(dimethylamino)cyclobutanecarboxamido)methyl)-N-((trans-4-(5-methoxy-6-methylpyridin-2-yl)cyclohexyl)methyl) cyclohexanecarboxamide] |
| ≤ 250 | COc1ccc([C@H]2CC[C@H](CN(c3cccc(-c4cnc(C5CC5)s4)c3)C(=O)[C@H]3CC[C@H](CO)CC3)CC2)cc1C [Compound 15.02, trans-N-(3-(2-Cyclopropylthiazol-5-yl)phenyl)-4-(hydroxymethyl)-N-((trans-4-(4-methoxy-3-methylphenyl)cyclohexyl)methyl) cyclohexanecarboxamide] |
| ≤ 250 | COc1ccc([C@H]2CC[C@H](CN(c3cccc(-c4coc(C5CC5)n4)c3)C(=O)[C@H]3CC[C@H](C(=O)O)CC3)CC2)nc1C [Compound 18.01, trans-4-((3-(2-Cyclopropyloxazol-4-yl)phenyl)((trans-4-(5-methoxy-6-methylpyridin-2-yl)cyclohexyl)methyl)carbamoyl) cyclohexanecarboxylic acid] |
| ≤ 250 | COc1ccc([C@H]2CC[C@H](CN(c3cc(-c4coc(C5CC5)n4)ccn3)C(=O)[C@H]3CC[C@H](OC(=O)NC[C@H](C)O)CC3)CC2)nc1C [Compound 6.96, trans-4-((4-(2-Cyclopropyloxazol-4-yl)pyridin-2-yl)((trans-4-(5-methoxy-6-methylpyridin-2-yl)cyclohexyl)methyl)carbamoyl)cyclohexyl ((S)-2-hydroxypropyl)carbamate] |
| ≤ 250 | COc1ccc([C@H]2CC[C@H](CN(c3cc(-c4coc(C5CC5)n4)ccn3)C(=O)[C@H]3CC[C@H](OC(=O)NC(C)(C)CO)CC3)CC2)nc1C [Compound 6.90, trans-4-((4-(2-Cyclopropyloxazol-4-yl)pyridin-2-yl)((trans-4-(5-methoxy-6-methylpyridin-2-yl)cyclohexyl)methyl)carbamoyl)cyclohexyl (1-hydroxy-2-methylpropan-2-yl)carbamate] |
| ≤ 250 | COC(=O)O[C@H]1CC[C@H](C(=O)N(C[C@H]2CC[C@H](c3ccc(OC)c(C)n3)CC2)c2cc(-c3coc(C4CC4)n3)ccn2)CC1 [Compound 5.49, trans-4-((4-(2-Cyclopropyloxazol-4-yl)pyridine-2-yl)((trans-4-(5-methoxy-6-methylpyridin-2-yl)cyclohexyl)methyl)carbamoyl)cyclohexyl methyl carbonate] |
| ≤ 250 | COc1ccc([C@H]2CC[C@H](CN(c3cccc(-c4cnc(C5CC5)s4)c3)C(=O)[C@H]3CC[C@H](OC(=O)NCCO)CC3)CC2)cc1C [Compound 4.01, trans-4-((3-(2-Cyclopropylthiazol-5-yl)phenyl)((trans-4-(4-methoxy-3-methylphenyl)cyclohexyl)methyl)carbamoyl)cyclohexyl (2-hydroxyethyl)carbamate] |
| ≤ 250 | COc1ccc([C@H]2CC[C@H](CN(c3cccc(-c4coc(C(C)C)n4)c3)C(=O)[C@H]3CC[C@H](CC(=O)O)CC3)CC2)cc1C#N [Compound 21.10, 2-(trans-4-(((trans-4-(3-Cyano-4-methoxyphenyl)cyclohexyl)methyl)(3-(2-isopropyloxazol-4-yl)phenyl)carbamoyl)cyclohexyl)acetic acid] |
| ≤ 250 | COC(=O)N[C@H]1CC[C@H](C(=O)N(C[C@H]2CC[C@H](c3ccc(OC)c(C)c3)CC2)c2cccc(-c3cnc(C4CC4)s3)c2)CC1 [Compound 25, Methyl (trans-4-((3-(2-cyclopropylthiazol-5-yl)phenyl)((trans-4-(4-methoxy-3-methylphenyl)cyclohexyl)methyl)carbamoyl)cyclohexyl)carbamate] |
| ≤ 250 | CNC(=O)O[C@H]1CC[C@H](C(=O)N(C[C@H]2CC[C@H](c3ccc(OC)c(C#N)c3)CC2)c2cc(-c3coc(C4CC4)n3)ccn2)CC1 [Compound 5.39, trans-4-(((trans-4-(3-Cyano-4-methoxyphenyl)cyclohexyl)methyl)(4-(2-cyclopropyloxazol-4-yl)pyridine-2-yl)carbamoyl)cyclohexyl methylcarbamate] |
| ≤ 250 | CNC(=O)O[C@H]1CC[C@H](C(=O)N(C[C@H]2CC[C@H](c3ccc(OC)c(C#N)n3)CC2)c2cccc(-c3coc(C4CC4)n3)c2)CC1 [Compound 5.42, trans-4-(((trans-4-(6-Cyano-5-methoxypyridin-2-yl)cyclohexyl)methyl)(3-(2-cyclopropyloxazol-4-yl)phenyl)carbamoyl)cyclohexyl methylcarbamate] |

— patent publication US20220089575A1, “FARNESOID X RECEPTOR AGONISTS AND USES THEREOF” (Metacrine, Inc., priority 2017, published 2022)
